The text below walks through data of PubChem BioAssay (NCI).

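Growth conditions: 96-well plates. Treatment: test compound, 48 hours, 5 concentrations. Analysis: linear interpolation between bracketing concentrations; unreached endpoints set to highest concentration. At the TGI there is no net growth.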

Common to all, as to test: growth of human tumour cells (NCI), 48 h
Test [1] relates to A549 NSCLC.
Test [2] deals with CCRF-CEM leukemia.
In test [3] the test system is KM12 colon.
Test [4] has as its system NCI-H226 lung.
In test [5] the test system is OVCAR-4 ovarian.
For test [6], the system named is OVCAR-8 ovarian.
In test [7] the test system is RXF 393 renal.
In test [8] the test system is SF-268 CNS.
For test [9], the system named is SF-295 CNS.
Test [10] deals with SN12C renal.
For test [11], the system named is SR leukemia.
The test system of test [12] is SW-620 colon.
The test system of test [13] is UO-31 renal.
The test system of test [14] is NCI-H522 lung.

As to `CCCC1=NC(C(F)(F)F)(C(F)(F)F)N=C(N2CCOCC2)O1`, the TGI in test [1], in test [2], in [3], in test [4], in test [5] and in [6] was greater than 100 µM in each case. Also, the TGI in test [7], in test [8], in test [9], in [10], in test [11] and in test [12] was greater than 100 µM each time. This molecule yielded a TGI in test [13] greater than 100 µM.

As for `N=c1oc2ccc([N+](=O)[O-])cc2cc1C(=O)Nc1ccccn1`, the TGI was greater than 100 µM in test [1]; greater than 100 µM in test [2]; greater than 100 µM in test [3]; greater than 100 µM in [4]; 86.2 µM in test [14]; greater than 100 µM in [5]. The TGI in [6], in test [7], in [8], in [10], in test [11] and in test [12] was greater than 100 µM in each case.

Turning to `COC(=O)NN/C=C(\C=Nc1ccccc1)[N+](=O)[O-]`, the TGI in test [1], in test [2], in test [14], in [5], in test [6] and in test [7] was greater than 100 µM throughout. Moreover, the TGI in [8], in [10], in [11], in test [12] and in test [13] was greater than 100 µM each time.

On to `c1csc(-c2cscc2-c2cccs2)c1`, for which the TGI is greater than 100 µM in test [1]; greater than 100 µM in [2]; greater than 100 µM in [3]; 65.4 µM in [4]; greater than 100 µM in [5]; greater than 100 µM in test [6]. Further, the TGI is 77.7 µM in test [7]; greater than 100 µM in test [8]; greater than 100 µM in test [9]; greater than 100 µM in test [10]; greater than 100 µM in test [11]; greater than 100 µM in [12]. Moreover, the TGI in [13] is greater than 100 µM.

As to `O=C1C=Cc2c1csc2Br`, the TGI in [1] was greater than 100 µM; in test [2] it was 45.8 µM; in [3], greater than 100 µM; in test [14], 38.4 µM; in test [5], greater than 100 µM; in test [6], greater than 100 µM. The TGI in test [7] is greater than 100 µM; in test [8], greater than 100 µM; in [9], greater than 100 µM; in test [10] it was greater than 100 µM; in test [11], 22.7 µM; in test [12] it was 48.8 µM. The molecule further had a TGI in test [13] of 72.5 µM.

On to `Cc1ccc(S(=O)(=O)Nn2c(C)cc3ccc(S(=O)(=O)Nc4ccccc4[N+](=O)[O-])cc3c2=O)cc1`, for which the TGI in test [1], in [2], in [3], in test [4], in [14] and in test [5] was greater than 100 µM in each case. Besides, the TGI in test [6], in [8], in test [9], in test [10], in [11] and in test [12] was greater than 100 µM throughout. In test [13], this molecule yielded a TGI greater than 100 µM.

As to `CCSC1=C(C#N)C2(CCCCC2)C2=C(CC(C)(C)CC2=O)N1`, the TGI in test [1] is greater than 100 µM; in [2] it was greater than 100 µM; in [3], greater than 100 µM; in test [4], greater than 100 µM; in test [14], greater than 100 µM; in test [5], 73.2 µM. For the same molecule, the TGI in test [6], in test [7], in test [8], in test [10], in test [11] and in [12] was greater than 100 µM in each case. Moreover, the TGI in test [13] amounted to 39.8 µM.

On to `CSc1ncc2c(C#N)c3ccccn3c(=O)c2n1`, for which the TGI in test [1], in test [2], in [3], in test [4], in test [5] and in test [6] was greater than 100 µM throughout. Moreover, the TGI in test [7], in test [8], in test [9], in test [10], in [11] and in test [12] was greater than 100 µM in each case. This molecule displayed a TGI in test [13] greater than 100 µM.

Consider `CCNC(=S)Nc1c(C#N)c2n(c1C(=O)OCC)CCCCC2`, for which the TGI in test [2], in test [3], in [4], in test [5], in test [6] and in test [7] was greater than 100 µM throughout. Besides, the TGI in [8], in test [9], in test [11], in test [12] and in [13] was greater than 100 µM each time.

`COc1ccc(/C=N/NS(=O)(=O)c2ccc(/C=C3\NC(=O)N(C)C3=O)cc2)cc1`: the TGI in test [1], in test [2], in [3], in [4], in test [5] and in test [6] was greater than 100 µM each time. The TGI in test [7], in test [8], in [9], in test [10], in test [11] and in test [12] was greater than 100 µM in each case. For the same molecule, the TGI in test [13] was greater than 100 µM.

Consider `O=C(Cc1nc2ccc(C(=O)c3ccccc3)cc2[nH]c1=O)C(=O)Nc1ccc(C(F)(F)F)cc1[N+](=O)[O-]`, for which the TGI was greater than 100 µM in test [1]; 91.8 µM in test [2]; greater than 100 µM in [3]; greater than 100 µM in test [4]; greater than 100 µM in [14]; greater than 100 µM in test [5]. The TGI in test [6], in test [8], in [9], in [10], in [11] and in test [12] was greater than 100 µM in each case. In addition, the TGI in test [13] was greater than 100 µM.
